Laboratory results: US8927484B2, “Antiviral compounds” (Gilead Sciences, Inc., priority 2009, dated 2015)

Each compound was assayed on Replicon cells harboring H77 (genotype 1a) or Con1 (genotype 1b) HCV RNA and Renilla luciferase reporter (assay: High Throughput Replicon Assay (HTBS)). Conditions: 72 h, read-out: INH @1 μM (Mean).
Type: cell-based
Method: High Throughput Replicon Assay (HTBS)
Replicon cells harboring H77 (genotype 1a) or Con1 (genotype 1b) HCV RNA and Renilla luciferase reporter were seeded in 384-well black plates at a density of 1.6×10^3 cells per well in 90 μl of DMEM culture medium, excluding G-418. Compounds were serially diluted in 100% DMSO and added to cells at a 1:225 dilution, achieving a final concentration of 0.44% DMSO in a total volume of 90 μL with a Biotek uFlow Workstation. Cell plates were incubated at 37° C. with 5% CO2 for 3 days, after which culture media were removed and cells were assayed for luciferase activity as a marker for replication level. Luciferase expression was measured using Dual-Glo luciferase assay reagents (Promega, Madison, Wis.). Briefly, 20 μL of Dual-Glo luciferase buffer was added to lyse the cells for 10 min and subsequently 20 μL of a diluted Dual-Glo Stop & Glo substrate (1:100) was added to each well. Luminescence signal was measured on a Perkin Elmer Envision Plate Reader after incubation for 10 minute. Luciferase levels were converted into percentages relative to the untreated controls (defined as 100%) and data were fit to the logistic dose response equation y=a/(1+(x/b)^c) using XLFit4 software (IDBS, Emeryville, Calif.). EC50 values were calculated from the resulting equations.

| Compound | inhibition at 1 µM [%] |
| --- | --- |
| C=C[C@@H]1C[C@]1(NC(=O)[C@@H]1C[C@@H](Oc2cc(-c3nc(C(C)C)cs3)nc3c(C)c(OC)ccc23)[C@H]2CN(C(=O)OC(C)(C)C)[C@H](C(C)C)C(=O)N21)C(=O)NS(=O)(=O)C1CC1 [Example 58] | > 85 |
| C=C[C@@H]1C[C@]1(NC(=O)[C@@H]1C[C@@H](Oc2cc(-c3nc(C(C)C)cs3)nc3c(Cl)c(OCCN4CCOCC4)ccc23)[C@H]2CN(C(=O)OC(C)(C)C)[C@H](C(C)C)C(=O)N21)C(=O)NS(=O)(=O)C1CC1 [Example 9] | > 99 |
| C=C[C@@H]1C[C@]1(NC(=O)[C@@H]1C[C@@H](Oc2cc(-c3nc(C(C)C)cs3)nc3c(Cl)c(OCCN4CCOCC4)ccc23)[C@H]2CN(C(=O)OC(C)(C)C)[C@H](C(C)(C)OC)C(=O)N21)C(=O)NS(=O)(=O)C1CC1 [Example 34] | > 95 |
| CC[C@@H]1C[C@]1(NC(=O)[C@@H]1C[C@@H](Oc2cc(-c3nc(C(C)C)cs3)nc3c(C)c(OC)ccc23)[C@H]2CN(C(=O)OC(C)(C)C)[C@H](C(C)C)C(=O)N21)C(=O)NS(=O)(=O)C1CC1 [Example 59] | > 45 |
| C=C[C@@H]1C[C@]1(NC(=O)[C@@H]1C[C@@H](Oc2cc(-c3cccc(C(C)C)n3)nc3c(Cl)c(OC)ccc23)[C@H]2CN(C(=O)OC(C)(C)C)[C@H](C(C)(C)C)C(=O)N21)C(=O)NS(=O)(=O)C1CC1 [Example 44] | > 99 |
| C=C[C@@H]1C[C@]1(NC(=O)[C@@H]1C[C@@H](Oc2cc(-c3nc(C(C)C)cs3)nc3c(C)c(OC)ccc23)[C@H]2CN(C(=O)OC(C)(C)C)[C@H](C(C)(C)C)C(=O)N21)C(=O)NS(=O)(=O)C1CC1 [Example 24] | > 99 |
| C=C[C@@H]1C[C@]1(NC(=O)[C@@H]1C[C@@H](Oc2cc(-c3nc(C(C)C)cs3)nc3c(C)c(OC)ccc23)[C@H]2CN(C)[C@H](C(C)C)C(=O)N21)C(=O)NS(=O)(=O)C1CC1 [Example 62] | > 99 |
| C=C[C@@H]1C[C@]1(NC(=O)[C@@H]1C[C@@H](Oc2cc(-c3nc(C(C)C)cs3)nc3c(Cl)c(OCCN4CCOCC4)ccc23)[C@H]2CN(C(=O)OC(C)(C)C)[C@H](C3CCOCC3)C(=O)N21)C(=O)NS(=O)(=O)C1CC1 [Example 73] | > 90 |
| C=C[C@@H]1C[C@]1(NC(=O)[C@@H]1C[C@@H](Oc2cc(-c3csc(C(C)C)n3)nc3c(Cl)c(OC)ccc23)[C@H]2CN(C(=O)OC(C)(C)C)[C@H](C(C)(C)C)C(=O)N21)C(=O)NS(=O)(=O)C1(C)CC1 [Example 4] | > 99 |
| C=C[C@@H]1C[C@]1(NC(=O)[C@@H]1C[C@@H](Oc2cc(-c3nc(C(C)C)cs3)nc3c(Cl)c(OCCN4CCOCC4)ccc23)[C@H]2CN(C(=O)OC3CCCC3)[C@H](C(C)C)C(=O)N21)C(=O)NS(=O)(=O)C1CC1 [Example 20] | > 90 |
| C=C[C@@H]1C[C@]1(NC(=O)[C@@H]1C[C@@H](Oc2cc(-c3nc(C(C)C)cs3)nc3c(Cl)c(OCCN4CCOCC4)ccc23)[C@H]2CN(C(=O)OC(C)(C)C)[C@H](C(C)C)C(=O)N21)C(=O)NS(=O)(=O)C1(C)CC1 [Example 46] | > 99 |
| C=C[C@@H]1C[C@]1(NC(=O)[C@@H]1C[C@@H](Oc2cc(-c3nc(C(C)C)cs3)nc3c(Cl)c(OCCN4CCOCC4)ccc23)[C@H]2CN(C(=O)OC(C)(C)C)[C@H]([C@H](C)OC)C(=O)N21)C(=O)NS(=O)(=O)C1CC1 [Example 55] | > 95 |
| C=C[C@@H]1C[C@]1(NC(=O)[C@@H]1C[C@@H](Oc2cc(-c3nc(C(C)C)cs3)nc3c(Cl)c(OCCOC)ccc23)[C@H]2CN(C(=O)OC(C)(C)C)[C@H](C(C)(C)C)C(=O)N21)C(=O)NS(=O)(=O)C1CC1 [Example 22] | > 99 |
| C=C[C@@H]1C[C@]1(NC(=O)[C@@H]1C[C@@H](Oc2cc(-c3nc(C(C)C)cs3)nc3c(C)c(OC)ccc23)[C@H]2CN(C(=O)OC(C)(C)C)C([C@H](C)CC)C(=O)N21)C(=O)NS(=O)(=O)C1CC1 (stereo partly shown) [Example 38] | > 95 |
| CC[C@@H]1C[C@]1(NC(=O)[C@@H]1C[C@@H](Oc2cc(-c3nc(C(C)C)cs3)nc3c(Cl)c(OCCN4CCOCC4)ccc23)[C@H]2CN(C(=O)OC(C)(C)C)[C@H](C3CCOCC3)C(=O)N21)C(=O)NS(=O)(=O)C1CC1 [Example 74] | > 90 |
| COc1ccc2c(O[C@@H]3C[C@H]4C(=O)N[C@]5(C(=O)NS(=O)(=O)C6CC6)C[C@H]5/C=C\CCCCC[C@@H]5C(=O)N4[C@@H]3CN5C(=O)OC(C)(C)C)cc(-c3cccc(C(C)C)n3)nc2c1Cl [Example 94] | > 99 |
| C=C[C@@H]1C[C@]1(NC(=O)[C@@H]1C[C@@H](Oc2cc(-c3cccc(C(C)C)n3)nc3c(Cl)c(OC)ccc23)[C@H]2CN(C(=O)OC(C)(C)C)[C@H](C(C)C)C(=O)N21)C(=O)NS(=O)(=O)C1CC1 [Example 21] | > 99 |

| Compound | inhibition at 1 µM [%] |
| --- | --- |
| CC[C@@H]1C[C@]1(NC(=O)[C@@H]1C[C@@H](Oc2cc(-c3nc(C(C)C)cs3)nc3c(Cl)c(OCCN4CCOCC4)ccc23)[C@H]2CN(C(=O)OC(C)(C)C)[C@H]([C@H](C)CC)C(=O)N21)C(=O)NS(=O)(=O)C1CC1 [Example 36] | > 90 |
| C=C[C@@H]1C[C@]1(NC(=O)[C@@H]1C[C@@H](Oc2cc(-c3nc(C(C)C)cs3)nc3c(Cl)c(OCCN4CCOCC4)ccc23)[C@H]2CN(C(=O)OC(C)(C)C)[C@H]([C@@H](C)OC)C(=O)N21)C(=O)NS(=O)(=O)C1CC1 [Example 54] | > 45 |
| C=C[C@@H]1C[C@]1(NC(=O)[C@@H]1C[C@@H](Oc2cc(-n3ccc(C(C)C)n3)nc3c(Cl)c(OCCN4CCOCC4)ccc23)[C@H]2CN(C(=O)OC(C)(C)C)[C@H](C(C)C)C(=O)N21)C(=O)NS(=O)(=O)C1CC1 [Example 30] | > 35 |
| C=C[C@@H]1C[C@]1(NC(=O)[C@@H]1C[C@@H](Oc2cc(-c3nc(C(C)C)cs3)nc3c(Cl)c(OCCN4CCOCC4)ccc23)[C@H]2CN(C(=O)NC(C)(C)C)[C@H](C(C)C)C(=O)N21)C(=O)NS(=O)(=O)C1CC1 [Example 18] | > 35 |
| CC[C@@H]1C[C@]1(NC(=O)[C@@H]1C[C@@H](Oc2cc(-c3nc(C(C)C)cs3)nc3c(Cl)c(OCCN4CCOCC4)ccc23)[C@H]2CN(C(=O)OC(C)(C)C)[C@H](C(C)C)C(=O)N21)C(=O)NS(=O)(=O)C1CC1 [Example 11] | > 50 |
| CC[C@@H]1C[C@]1(NC(=O)[C@@H]1C[C@@H](Oc2cc(-c3nc(C(C)C)cs3)nc3c(Cl)c(OCCN4CCOCC4)ccc23)[C@H]2CN(C(=O)OC(C)(C)C)[C@H]([C@@H](C)CC)C(=O)N21)C(=O)NS(=O)(=O)C1CC1 [Example 42] | > 95 |
| CC[C@@H]1C[C@]1(NC(=O)[C@@H]1C[C@@H](Oc2cc(-c3nc(C(C)C)cs3)nc3c(C)c(OC)ccc23)[C@H]2CN(C)[C@H](C(C)C)C(=O)N21)C(=O)NS(=O)(=O)C1CC1 [Example 63] | > 40 |
| CC[C@@H]1C[C@]1(NC(=O)[C@@H]1C[C@@H](Oc2cc(-c3nc(C(C)C)cs3)nc3c(Cl)c(OC)ccc23)[C@H]2CN(C(=O)OC(C)(C)C)[C@H](C(C)C)C(=O)N21)C(=O)NS(=O)(=O)C1CC1 [Example 6] | > 99 |
| C=C[C@@H]1C[C@]1(NC(=O)[C@@H]1C[C@@H](Oc2cc(-n3ccc(C(C)C)n3)nc3c(Cl)c(OCCN4CCOCC4)ccc23)[C@H]2CN(C(=O)OC(C)(C)C)[C@H](C(C)(C)C)C(=O)N21)C(=O)NS(=O)(=O)C1CC1 [Example 28] | > 99 |
| C=C[C@@H]1C[C@]1(NC(=O)[C@@H]1C[C@@H](Oc2cc(-c3nc(C(C)C)cs3)nc3c(Cl)c(OCCN4CCOCC4)ccc23)[C@H]2CN(C(=O)OC(C)(C)C)[C@H]([C@H](C)CC)C(=O)N21)C(=O)NS(=O)(=O)C1CC1 [Example 49] | > 95 |
| C=C[C@@H]1C[C@]1(NC(=O)[C@@H]1C[C@@H](Oc2cc(-c3csc(C(C)C)n3)nc3c(Cl)c(OC)ccc23)[C@H]2CN(C(=O)OC(C)(C)C)[C@H](C(C)(C)C)C(=O)N21)C(=O)NS(=O)(=O)C1CC1 [Example 2] | > 99 |
| C=C[C@@H]1C[C@]1(NC(=O)[C@@H]1C[C@@H](Oc2cc(-c3nc(C(C)C)cs3)nc3c(Cl)c(OCCN4CCOCC4)ccc23)[C@H]2CN(C(=O)OC(C)(C)C)[C@H](C(C)(C)C)C(=O)N21)C(=O)NS(=O)(=O)C1CC1 [Example 26] | > 99 |
| CC[C@@H]1C[C@]1(NC(=O)[C@@H]1C[C@@H](Oc2cc(-c3nc(C(C)C)cs3)nc3c(Cl)c(OCC(OC)OC)ccc23)[C@H]2CN(C(=O)OC(C)(C)C)[C@H](C(C)C)C(=O)N21)C(=O)NS(=O)(=O)C1CC1 [Example 13] | > 99 |
| C=C[C@@H]1C[C@]1(NC(=O)[C@@H]1C[C@@H](Oc2cc(-c3nc(C(C)C)cs3)nc3c(Cl)c(OC)ccc23)[C@H]2CN(C(=O)OC(C)(C)C)[C@H](C(C)C)C(=O)N21)C(=O)NS(=O)(=O)C1CC1 [Example 8] | > 99 |
| C=C[C@@H]1C[C@]1(NC(=O)[C@@H]1C[C@@H](Oc2cc(-c3nc(C(C)C)cs3)nc3c(Cl)c(OCCN4CCOCC4)ccc23)[C@H]2CN(C(=O)OC(C)(C)C)C(=C(C)C)C(=O)N21)C(=O)NS(=O)(=O)C1CC1 [Example 35] | > 35 |
| C=C[C@@H]1C[C@]1(NC(=O)[C@@H]1C[C@@H](Oc2cc(-c3nc(C(C)C)cs3)nc3c(Cl)c(OCCN4CCOCC4)ccc23)[C@H]2CN(S(C)(=O)=O)[C@H](C(C)C)C(=O)N21)C(=O)NS(=O)(=O)C1CC1 [Example 16] | > 25 |
| C=C[C@@H]1C[C@]1(NC(=O)[C@@H]1C[C@@H](Oc2cc(-c3nc(C(C)C)cs3)nc3c(Cl)c(OCCN4CCOCC4)ccc23)[C@H]2CN(C(=O)OC(C)(C)C)[C@H]([C@@H](C)CC)C(=O)N21)C(=O)NS(=O)(=O)C1CC1 [Example 40] | > 75 |
